Experimental data published in patent US20230173014A1, “WINE LEES, DERIVATIVES THEREOF AND THEIR USES” (GRANDES VINOS Y VIÑEDOS SA, priority 2021, published 2023).

Tests used:
[1] = target: Angiotensin Converting Enzyme (ACE) (Homo sapiens, UniProt P12821); experiment: ACEI activity measurement (in vitro ACE inhibition); type: biochemical; conditions: synthetic peptides at 0.83 mg/mL
Procedure: Once the wine lees were collected, they were centrifuged at 2,950×g, 15 min, 4° C. and the supernatant was collected. The ACEI activity of the supernatants was determined as described in Example 2.
The ACEI activity measurement of the wine lees and their hydrolysates was performed according to the method described by Mas-Capdevila et al. 2018 (“Dose-related antihypertensive properties and the corresponding mechanisms of a chicken foot hydrolysate in hypertensive rats”. Nutrients. 2018, 10 (9), 1295), after centrifugation at 2,950×g, 15 min, 4° C. and a dilution of 1/256.
The percentage of inhibition (% Inhibition) was calculated applying the following formula: […]
The IC50 was calculated by determining the ACEI percentage of different concentrations of the sample. […] Subsequently, the necessary amount of the sample was calculated to inhibit 50% of the enzyme by extrapolating in the previously obtained straight line. […]

[2] = test system: spontaneously hypertensive rats (SHR); experiment: Antihypertensive activity after acute intragastric administration in hypertensive rats (tail-cuff); type: in vivo, rat; conditions: for maximum values of SBP reduction: printed as at 4 h post-administration; for ΔSBP (mmHg) 2 h: mean ± ESM n=6; for ΔSBP (mmHg) 4 h / ΔSBP (mmHg) 6 h / ΔSBP (mmHg) 8 h / ΔSBP (mmHg) 24 h / ΔSBP (mmHg) 48 h: same doses
Procedure: For the study, male SHR rats 17-20 weeks old and weighing between 310 and 360 g, from Charles River Laboratories España S.A. were used. The rats remained at a stable ambient temperature of 23° C., and with light-dark cycles of 12 hours, eating food and water ad-libitum.
The BP measurement in these animals was carried out with a modification of the tail-cuff technique, following the methodology and equipment described by Mas-Capdevila et al. 2018. The measurement of the SBP was performed prior to the administration of the treatments and after their administration at 2, 4, 6, 8, 24 and 48 h. The treatments consisted of the acute administration of a dose of 5 mL/kg bw of the different wine lees (supernatant collected after centrifugation at 2,950×g, 15 min, 4° C.). The effect of water administration (1.5 mL, negative control) was also evaluated in order to know the circadian variation of SBP in rats and of captopril (50 mg/kg bw dissolved in 1.5 mL of water), antihypertensive drug used as a positive control. The administration of all the treatments was carried out by means of an intragastric tube at between 9 and 10 a.m.
The SBP and DBP results are represented as a decrease in SBP or DBP at different times with respect to the SBP or DBP observed at 0 h (without treatment) for each animal (FIG. 1). Each data represents the mean±the ESM (n=6). Furthermore, the data of the different groups were compared in a 2-way analysis of variance (ANOVA) using the Tukey test at each post-administration time with the SPSS statistical program (IBM SPSS Statistics software version 20.0) and the difference was considered significant for p values <0.05.
In the present example, the effect of dry UVC wine lees, without alcohol, on its antihypertensive activity is described by means of its acute administration to SHR rats. The study was carried out following the method and conditions described in Example 3. The treatments that were evaluated consisted of the acute administration of water (1.5 mL), captopril (50 mg/kg bw), UVC wine lees (5 mL/kg bw), or the same lyophilized lees (125 mg/kg bw). The tested dose of lyophilized lees (125 mg/kg bw) corresponded to the same amount of dry product that is in 5 mL/kg bw of the wine lees. Solid state treatments were diluted in water for administration to animals. […] In fact, it increased its effectiveness from the two hours after its administration, producing a drop in systolic blood pressure of −33 mmHg compared to −12 mmHg, a drop produced by those without drying. Furthermore, its effect was more prolonged in time. Specifically, lyophilized UVC wine lees produced a drop in SBP of −41 mmHg at 24 h post-administration.
The antihypertensive effect of the “hydrolysate 3” was studied for 72 h (0, 2, 4, 6, 8, 24, 48, and 72 h), after its administration by intragastric tube. As in Example 3, negative and positive BP controls were performed, obtained after administration of water and captopril (50 mg/kg bw) respectively, in a volume of 1.5 mL per animal. The antihypertensive activity of the wine lees used to prepare “hydrolysate 3” and “hydrolysate 3” was evaluated, both at a dose of 5 mL/kg bw. The lees used in these tests were from a different batch than the one used in Example 3.
For the evaluation of the possible acute antihypertensive effect of the peptides, a study in SHR rats was carried out, provided by Charles River Laboratories Espana S.A. The rats' age, stalling conditions and BP measurement technique were the same as those described in Example 3. The initial SBP of the animals was 204±2 mmHg. A negative control (water) and a positive control (captopril) were also included during the study. The peptides were administered intragastrically at a single dose of 10 mg/kg bw and captopril at 50 mg/kg bw, diluted in water. BP measurements were pooled and the mean±ESM was obtained (n=6 per group). The same analysis of variance was used as in Example 3.

[3] = Example 10, peptides 10 mg/kg bw, captopril 50 mg/kg bw, intragastric

Angiotensin Converting Enzyme (ACE), sequence (P12821 30-1306, species assumed): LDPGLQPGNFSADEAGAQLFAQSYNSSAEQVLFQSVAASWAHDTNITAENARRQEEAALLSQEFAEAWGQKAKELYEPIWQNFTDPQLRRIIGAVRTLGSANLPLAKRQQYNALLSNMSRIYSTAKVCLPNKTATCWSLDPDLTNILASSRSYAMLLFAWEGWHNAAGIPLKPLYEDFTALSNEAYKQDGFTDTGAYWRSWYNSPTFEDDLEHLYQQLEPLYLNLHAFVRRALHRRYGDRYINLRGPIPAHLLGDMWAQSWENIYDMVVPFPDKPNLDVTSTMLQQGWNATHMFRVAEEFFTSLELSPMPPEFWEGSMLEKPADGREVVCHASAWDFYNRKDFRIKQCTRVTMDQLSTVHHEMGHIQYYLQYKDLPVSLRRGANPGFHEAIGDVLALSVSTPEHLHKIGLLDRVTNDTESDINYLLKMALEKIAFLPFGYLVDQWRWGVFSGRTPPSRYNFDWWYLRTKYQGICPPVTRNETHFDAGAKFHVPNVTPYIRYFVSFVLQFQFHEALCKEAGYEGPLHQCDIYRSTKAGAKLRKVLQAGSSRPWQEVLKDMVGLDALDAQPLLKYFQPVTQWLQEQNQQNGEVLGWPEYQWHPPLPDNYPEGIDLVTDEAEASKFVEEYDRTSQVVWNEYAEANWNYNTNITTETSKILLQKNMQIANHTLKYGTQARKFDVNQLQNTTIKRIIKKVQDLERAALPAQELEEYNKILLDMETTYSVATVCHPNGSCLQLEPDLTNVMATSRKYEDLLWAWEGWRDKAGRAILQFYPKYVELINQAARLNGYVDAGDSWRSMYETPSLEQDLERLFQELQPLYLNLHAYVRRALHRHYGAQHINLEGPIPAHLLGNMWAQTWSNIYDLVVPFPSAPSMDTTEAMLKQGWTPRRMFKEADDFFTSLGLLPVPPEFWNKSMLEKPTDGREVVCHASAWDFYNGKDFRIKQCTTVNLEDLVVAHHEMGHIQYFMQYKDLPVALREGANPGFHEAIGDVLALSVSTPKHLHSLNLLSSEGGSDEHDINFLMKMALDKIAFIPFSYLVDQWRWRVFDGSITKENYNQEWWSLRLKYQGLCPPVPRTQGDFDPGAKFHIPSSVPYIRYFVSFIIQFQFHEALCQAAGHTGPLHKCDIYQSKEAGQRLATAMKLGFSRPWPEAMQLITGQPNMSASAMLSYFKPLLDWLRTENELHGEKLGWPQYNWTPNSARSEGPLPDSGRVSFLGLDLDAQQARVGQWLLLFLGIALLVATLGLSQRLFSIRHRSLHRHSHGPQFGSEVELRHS

Compound | ACEI activity (%) [1] [%] | ΔSBP (mmHg) 2 h [2, 3] [mmHg] | ΔSBP (mmHg) 4 h ([2]; Example 10) [mmHg] | ΔSBP (mmHg) 6 h ([2]; Example 10) [mmHg] | ΔSBP (mmHg) 8 h ([2]; Example 10) [mmHg] | ΔSBP (mmHg) 24 h ([2]; Example 10) [mmHg] | ΔSBP (mmHg) 48 h ([2]; Example 10) [mmHg] | further results
LDSPSEGRAPGAD (Synthesized peptide P6) [peptide identified in hydrolysate 3, chemically synthesized] | 2.4 ± 0.9 | −11 ± 2 | −16 ± 4 | −24 ± 3 | −22 ± 4 | −2 ± 4 | −5 ± 4 | maximum values of SBP reduction ([2]; Example 10, 10 mg/kg bw): −24 mmHg
PAGELHP (Synthesized peptide P4) [peptide identified in hydrolysate 3, chemically synthesized] | – | −7 ± 3 | −5 ± 4 | −6 ± 5 | −5 ± 4 | −3 ± 7 | −2 ± 3 | antihypertensive effect in SHR ([2]; Example 10, 10 mg/kg bw): did not show an antihypertensive effect
TVTNPARIA (Synthesized peptide P3) [peptide identified in hydrolysate 3, chemically synthesized] | – | −2 ± 4 | −14 ± 4 | −16 ± 2 | −14 ± 4 | −5 ± 3 | −2 ± 3 | –
FKTTDQQTRTTVA (Synthesized peptide P1) [peptide identified in hydrolysate 3, chemically synthesized] | 27.0 ± 5.6 | −12 ± 2 | −15 ± 4 | −23 ± 5 | −24 ± 3 | −13 ± 3 | −1 ± 3 | maximum values of SBP reduction ([2]; Example 10, 10 mg/kg bw): −23 mmHg
LDSPSEGRAPG (Synthesized peptide P5) [peptide identified in hydrolysate 3, chemically synthesized] | – | −10 ± 4 | −12 ± 5 | −18 ± 3 | −18 ± 3 | −3 ± 4 | −1 ± 4 | –
NPKLVTIV (Synthesized peptide P2) [peptide identified in hydrolysate 3, chemically synthesized] | 48.5 ± 9.1 | −9 ± 6 | −13 ± 4 | −19 ± 5 | −14 ± 3 | −5 ± 4 | −5 ± 3 | –
C[C@H](CS)C(=O)N1CCC[C@H]1C(=O)O [Captopril, captopril, reference compound] | – | −19 ± 6 | −34 ± 4 | −44 ± 4 | −45 ± 3 | −22 ± 6 | −7 ± 4 | maximum decrease in SBP ([2]; Example 3, FIG. 1A, at 6 h post-administration, wine lees 5 mL/kg bw, captopril 50 mg/kg bw): −43.2±3.9 mmHg; maximum decrease in DBP ([2]; Example 3, FIG. 1B, at 6 h post-administration, wine lees 5 mL/kg bw, captopril 50 mg/kg bw): −47.2±1.5 mmHg; ΔSBP (mmHg) 2 h ([2]; Example 4, captopril 50 mg/kg bw, UVC wine lees 5 mL/kg bw, lyophilized lees 125 mg/kg bw): −24 ± 3 mmHg; ΔSBP (mmHg) 4 h ([2]; Example 4): −26 ± 2 mmHg; ΔSBP (mmHg) 6 h ([2]; Example 4): −43 ± 4 mmHg; ΔSBP (mmHg) 8 h ([2]; Example 4): −16 ± 3 mmHg; ΔSBP (mmHg) 24 h ([2]; Example 4): −1 ± 2 mmHg; ΔSBP (mmHg) 48 h ([2]; Example 4): −2 ± 3 mmHg; maximum decrease in SBP at 6 h ([2]; Example 8, FIG. 4, captopril 50 mg/kg bw): −43 mm Hg; decrease in SBP at 48 h after administration ([2]; Example 8, hydrolysate 5 mL/kg bw, captopril 50 mg/kg bw): no longer exerted any significant effect; ΔSBP (mmHg) 2 h ([2]; Example 10, peptides 10 mg/kg bw, captopril 50 mg/kg bw, intragastric, listed as captopril): −19 mmHg; ΔSBP (mmHg) 24 h ([2]; Example 10, listed as captopril): −22 mmHg; decrease in SBP ([2]; FIG. 2A, 6 h after administration, captopril 50 mg/kg bw): −43 mmHg
